Experiment: Retention in blood after I.V. injection
Assay type: in vivo
Conditions: 30 minutes after I.V. injection

## N#C/C(=C\C=C\c1ccc(O)c(O)c1)C(=O)NCc1ccccc1 [CR4, (E,E)-2-(Benzylaminocarbonyl)-3-(3,4-dihydroxystyryl)acrylonitrile]
  retention: detection in the blood: still being detectable
